One substance from patent US11033559B2, “Leukocyte infiltration promoting agent and antitumor immunostimulatory agent” (OSAKA UNIVERSITY, priority 2015, dated 2021) can be followed below.

Holding throughout (format): in vivo
Assay [1] deals with LLC cells. As to the kind of experiment: Tumor growth inhibition, subcutaneous tumor formed from LLC cells. The conditions noted are these: LLC-bearing mice; LPA 3 mg/kg i.p. once daily for seven days; 5-FU 100 mg/kg i.p. once weekly, 2 times. How it is done:
(§1) LLC cells (1×10^6 cells in 100 μL PBS per animal) were subcutaneously injected into C57BL/6 NCrSlc mice aged 8 weeks (females) in the same manner as in Reference Example 1. An LPA solution for administration was prepared in the same manner as in Reference Example 1. 5-FU (Kyowa Hakko Kirin Co., Ltd.) was used as an anticancer drug. 5-FU was prepared as a solution in physiological saline (Otsuka Pharmaceutical Co., Ltd.). On day 7 post-inoculation, LLC-bearing mice that had developed a tumor with a volume of 30 to 50 mm^3 were selected and subjected to the experiment. The mice were assigned to three groups: a control group, a 5-FU group and an LPA group (n=3 per group). After grouping, LPA (3 mg/kg/100 μL), 5-FU (100 mg/kg/100 μL) or PBS (100 μL) was intraperitoneally administered to the mice. The administration of LPA or PBS was performed once daily for consecutive seven days. The administration of 5-FU was performed once weekly, 2 times in total (day 7 and day 14 post-inoculation). Tumor size was measured over time after the start of the administration. Tumor volume was calculated by the following formula: length×width×height×0.5.

In another assay the test system is LLC tumor in mice. As to the kind of experiment: Changes in localization of immune cells in tumor (CD31, CD4, CD8 immunostaining). The conditions noted are these: tumor sections of Reference Example 1, LLC-bearing mice, 3 mg/kg i.p. for five days. Here is the method: LPA was administered to tumor-bearing mice generated by subcutaneous inoculation of a mouse cancer cell line, and changes in the localization of immune cells in the tumor were examined.
The tumor sections prepared in Reference Example 1 were immunostained with an anti-CD4 antibody and an anti-CD8 antibody. As a primary antibody, Purified Hamster Anti-PECAM-1 Antibody (Millipore), which is an anti-mouse CD31 antibody, PE-labeled Anti-mouse CD4 Antibody (Pharmingen) or FITC-labeled Anti-mouse CD8 Antibody (Pharmingen) was used. As a secondary antibody, Alexa Fluor 647-conjugated Anti-Armenian Hamster IgG was used. The immunostaining was performed in the same procedure as in Reference Example 1. The immunostained sections were observed and photographed under a confocal laser microscope (Leica).

For assay [2], the system named is B16-BL6 mouse melanoma cell line. As to the kind of experiment: Tumor growth inhibition, subcutaneous tumor formed from melanoma cells. To be noted: B16-BL6-bearing mice; LPA 3 mg/kg i.p. once daily for seven days; 5-FU 100 mg/kg i.p. once weekly, 2 times. How it is done: as §1
The B16-BL6 mouse melanoma cell line was used. B16-BL6 cells (1×10^6 cells in […] PBS per animal) were subcutaneously injected into C57BL/6 NCrSlc mice aged 8 weeks (females). […]

Assay [3] relates to LLC cells. In words: Antitumor effect of combined use of LPA and immune checkpoint inhibitor. To be noted: LLC-bearing mice; LPA 3 mg/kg i.p. day 6 to day 20; anti-PD-1 antibody 100 μg/mouse i.p. on days 7, 9, 11, 14, 16, 18; volume until day 21. Here is the method: LLC cells (1×10^6 cells in 100 μL PBS per animal) were subcutaneously injected into C57BL/6 NCrSlc mice aged 8 weeks (females) in the same manner as in Reference Example 1. On day 6 post-inoculation, LLC-bearing mice that had developed a tumor with a volume of 30 to 40 mm^3 (volume=length×width×height×0.5) were selected. The mice were divided into four groups: a control group, an LPA administration group, an anti-PD-1 antibody administration group and an LPA plus anti-PD-1 antibody administration group, and subjected to the experiment. To the LPA administration group and to the LPA plus anti-PD-1 antibody administration group, LPA (3 mg/kg/100 μL) was intraperitoneally administered consecutively from day 6 through day 20 post-inoculation of the tumor cells. In the anti-PD-1 antibody administration group and in the LPA plus anti-PD-1 antibody administration group, anti-PD-1antibody therapy was started from day 7 post-inoculation of the tumor cells. Specifically, an anti-mouse PD-1 antibody (Clone: RMP1-14, BioXcell, BE0146) was intraperitoneally administered at a dose of 100 μg/mouse on day 7, day 9, day 11, day 14, day 16 and day 18 post-inoculation of the tumor cells. […] Tumor volume was measured over time until day 21.

Assay [4] concerns luminal surface of tumor blood vessels in LLC tumor-bearing mice. In words: Structural changes in lumina of tumor blood vessels (scanning electron microscopy). To be noted: 3 mg/kg intraperitoneally, 24 hours after administration, scanning electron microscope. How it is done:
LLC cells were subcutaneously inoculated into C57BL/6 NCrSlc mice aged 8 weeks (females, SLC, Inc.) in the same manner as in Reference Example 1. An LPA solution for administration was prepared in the same manner as in Reference Example 1. LLC-bearing mice on day 9 post-inoculation (animals with a tumor volume of 60 to 80 mm^3) were subjected to the experiment. The mice were divided into two groups: a control group and an LPA group (n=3 per group). After grouping, LPA (3 mg/kg/100 μL) or PBS (100 μL) was intraperitoneally administered to the mice. At 24 hours after LPA or PBS administration, the mice were fixed by perfusion with a fixative under anesthesia with pentobarbital (Kyoritsu Seiyaku Corporation). The fixative used was 0.1 M phosphate buffer (pH 7.4) containing 2% formaldehyde and 2.5% glutaraldehyde. After the fixation by perfusion, the tumors were harvested, immersed in the same fixative as used for perfusion, and shaken at 4° C. overnight. The tumors were further immersed in 0.1 M phosphate buffer (pH 7.4) containing 1% osmium tetroxide and 0.5% potassium ferrocyanide for fixation. The tumors were dehydrated in an ascending series of ethanol, then the alcohol was replaced with t-butyl alcohol, and the tumors were freeze-dried.

With lysophosphatidic acid [LPA], the “inhibition of tumor growth (tumor volume) versus control group” value in the assay on LLC cells [1] is on record as “albeit to a slightly lesser extent, the LPA group also showed inhibition of tumor growth”. Further, in the assay with LLC tumor in mice, the “continuity of tumor blood vessels (anti-CD31 staining)” value was “blood vessels were continuous”, the “localization of CD4-positive cells in the tumor” value is on record as “CD4-positive cells were present even in the central part of the tumor” and the “localization of CD8-positive cells in the tumor” value is “CD8-positive cells were present in the whole tumor region”. For the same substance, in assay [2], the “inhibitory effect on growth of the tumor formed from melanoma cells” value is reported as “comparable to that of 5-FU”. Further, in the assay on LLC cells [3], the “inhibition of tumor growth (tumor volume) versus control group” value was “slightly inhibited tumor growth”. Also, in assay [4], the “luminal surface of tumor blood vessels” value was “very smooth luminal surface”.
